From ChEMBL document CHEMBL1139393 (Bioorg Med Chem Lett, 2008)

Columns and labels:
Interstitial collagenase = molecular target: T1, Interstitial collagenase (Homo sapiens, UniProt P03956)
T1 sequence (P03956 whole entry): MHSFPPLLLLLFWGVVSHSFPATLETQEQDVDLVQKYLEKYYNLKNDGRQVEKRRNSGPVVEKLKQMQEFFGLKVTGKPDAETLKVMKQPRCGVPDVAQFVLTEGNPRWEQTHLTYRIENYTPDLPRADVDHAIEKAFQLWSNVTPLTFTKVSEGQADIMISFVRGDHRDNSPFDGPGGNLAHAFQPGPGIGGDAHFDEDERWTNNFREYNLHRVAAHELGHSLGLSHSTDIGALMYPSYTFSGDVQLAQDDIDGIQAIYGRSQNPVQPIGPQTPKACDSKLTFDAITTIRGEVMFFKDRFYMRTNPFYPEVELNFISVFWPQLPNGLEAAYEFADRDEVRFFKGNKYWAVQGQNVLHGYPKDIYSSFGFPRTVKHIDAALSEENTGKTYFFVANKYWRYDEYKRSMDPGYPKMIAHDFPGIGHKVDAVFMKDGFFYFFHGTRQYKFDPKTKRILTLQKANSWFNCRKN

Stromelysin-1 = Stromelysin-1 (Homo sapiens, UniProt P08254)
Stromelysin-1, sequence (P08254 whole entry): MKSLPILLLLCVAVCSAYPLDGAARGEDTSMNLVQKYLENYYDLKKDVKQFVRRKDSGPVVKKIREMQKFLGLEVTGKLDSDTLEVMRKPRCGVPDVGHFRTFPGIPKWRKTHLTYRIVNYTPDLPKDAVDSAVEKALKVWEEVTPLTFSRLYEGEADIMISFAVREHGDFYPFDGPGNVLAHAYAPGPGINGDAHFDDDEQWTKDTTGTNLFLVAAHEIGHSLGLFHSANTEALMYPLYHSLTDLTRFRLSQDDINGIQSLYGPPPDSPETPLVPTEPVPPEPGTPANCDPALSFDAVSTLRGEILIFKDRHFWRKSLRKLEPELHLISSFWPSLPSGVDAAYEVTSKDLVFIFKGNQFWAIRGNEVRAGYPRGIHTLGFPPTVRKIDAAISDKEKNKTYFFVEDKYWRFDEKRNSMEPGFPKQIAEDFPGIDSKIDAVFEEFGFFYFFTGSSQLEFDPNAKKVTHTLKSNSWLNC

[1] = molecular target: Matrix metalloproteinase-14 (Homo sapiens, UniProt P50281)
[2] = molecular target: T2, Disintegrin and metalloproteinase domain-containing protein 10 (Homo sapiens, UniProt O14672)
T2 sequence (O14672 whole entry): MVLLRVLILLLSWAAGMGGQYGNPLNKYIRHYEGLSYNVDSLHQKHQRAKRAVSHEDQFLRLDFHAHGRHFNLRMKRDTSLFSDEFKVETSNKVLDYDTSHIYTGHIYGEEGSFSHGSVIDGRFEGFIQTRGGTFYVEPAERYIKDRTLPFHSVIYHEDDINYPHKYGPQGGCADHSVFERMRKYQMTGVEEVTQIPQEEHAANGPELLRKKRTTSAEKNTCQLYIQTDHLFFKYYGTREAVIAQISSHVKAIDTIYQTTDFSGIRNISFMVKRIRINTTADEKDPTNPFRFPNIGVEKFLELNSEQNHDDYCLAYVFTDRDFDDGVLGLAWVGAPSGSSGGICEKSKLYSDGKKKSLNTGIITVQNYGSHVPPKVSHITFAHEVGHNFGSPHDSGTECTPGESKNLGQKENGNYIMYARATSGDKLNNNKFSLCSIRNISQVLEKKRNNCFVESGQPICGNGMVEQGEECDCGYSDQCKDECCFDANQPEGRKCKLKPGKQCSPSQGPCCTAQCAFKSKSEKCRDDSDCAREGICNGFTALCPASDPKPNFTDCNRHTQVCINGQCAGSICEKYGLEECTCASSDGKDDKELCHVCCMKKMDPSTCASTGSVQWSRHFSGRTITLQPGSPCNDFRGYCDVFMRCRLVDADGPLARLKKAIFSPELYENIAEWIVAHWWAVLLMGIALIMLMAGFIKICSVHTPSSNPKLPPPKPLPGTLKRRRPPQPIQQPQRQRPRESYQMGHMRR

Matrilysin = molecular target: T3, Matrilysin (Homo sapiens, UniProt P09237)
T3 sequence (P09237 whole entry): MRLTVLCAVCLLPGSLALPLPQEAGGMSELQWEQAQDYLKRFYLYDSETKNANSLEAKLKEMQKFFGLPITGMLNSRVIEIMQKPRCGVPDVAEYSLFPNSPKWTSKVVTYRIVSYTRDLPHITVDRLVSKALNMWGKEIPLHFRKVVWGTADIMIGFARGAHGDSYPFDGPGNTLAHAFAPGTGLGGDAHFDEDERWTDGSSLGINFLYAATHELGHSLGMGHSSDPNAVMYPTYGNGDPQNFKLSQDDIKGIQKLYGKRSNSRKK

[3] = molecular target: 72 kDa type IV collagenase (Homo sapiens, UniProt P08253)
72 kDa type IV collagenase, sequence (P08253 whole entry): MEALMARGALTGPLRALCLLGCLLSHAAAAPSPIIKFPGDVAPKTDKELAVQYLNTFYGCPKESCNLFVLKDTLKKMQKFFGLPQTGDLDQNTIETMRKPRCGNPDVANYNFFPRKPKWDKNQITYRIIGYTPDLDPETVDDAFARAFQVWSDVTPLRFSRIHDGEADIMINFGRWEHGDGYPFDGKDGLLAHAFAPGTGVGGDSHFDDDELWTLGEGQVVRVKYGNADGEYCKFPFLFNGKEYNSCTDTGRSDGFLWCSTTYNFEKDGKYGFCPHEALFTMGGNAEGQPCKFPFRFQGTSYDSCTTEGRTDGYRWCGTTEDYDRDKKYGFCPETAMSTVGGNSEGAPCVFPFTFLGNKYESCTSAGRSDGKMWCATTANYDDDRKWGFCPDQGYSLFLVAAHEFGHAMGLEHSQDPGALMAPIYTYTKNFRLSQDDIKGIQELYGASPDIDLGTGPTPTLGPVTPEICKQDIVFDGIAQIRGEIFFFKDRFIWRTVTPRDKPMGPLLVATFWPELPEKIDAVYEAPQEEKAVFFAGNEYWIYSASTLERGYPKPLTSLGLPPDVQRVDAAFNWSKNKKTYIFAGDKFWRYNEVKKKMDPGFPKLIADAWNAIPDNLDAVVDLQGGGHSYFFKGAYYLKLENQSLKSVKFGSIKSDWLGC

[4] = Permeability from apical to basolateral side of human Caco-2 cells; format: ADME, cell-based; conditions: read-out: permeability
[5] = AUC in Sprague-Dawley rat at 10 mg/kg, po; format: ADME, organism-based; set-up: dose 10 mg/kg, route oral; conditions: plasma

Row | Ki (Interstitial collagenase) [mM] | Ki (Stromelysin-1) [mM] | Ki [1] [mM] | Ki [2] [mM] | Ki (Matrilysin) [mM] | Ki [3] [mM] | Papp A→B [4] [×10⁻⁶ cm/s] | AUC [5] [µM·h] | Structure (SMILES)
1 | > 10 | 0.058 | 2.4 | > 10 | 0.11 | 1 | – | – | Cc1cc(COc2ccc(C[C@]3(C(N)=O)C[C@@H]3C(=O)NO)cc2)c2ccccc2n1
2 | – | – | – | – | – | – | 0.3 | – | NC(=O)[C@@]1(Cc2ccc(OCc3cc(-c4ccccc4)nc4ccccc34)c(F)c2)C[C@@H]1C(=O)NO
3 | – | – | – | – | – | – | – | > 2.5 | N#C[C@@]1(Cc2ccc(OCc3cc(-c4ccccc4)nc4ccccc34)cc2)C[C@@H]1C(=O)NO
4 | > 10 | > 10 | > 10 | > 10 | > 10 | > 10 | – | – | O=C(NO)[C@H]1C[C@]1(Cc1ccc(OCc2cc(-c3ccccc3)nc3ccccc23)cc1)C(=O)N1CCC[C@H]1CO
